Data reported in patent US9341627B2, “Protein structural biomarkers to guide targeted chemotherapies” (priority 2009, dated 2016).

How the values were obtained:
[1] = molecular target: T1, wildtype Eg5 kinesin motor domain (Homo sapiens, UniProt P52732); assay: In vitro basal ATPase assay (coupled enzymatic), wildtype Eg5; assay type: biochemical; settings: 5 μM motor protein, 1 mM MgATP, 5-22.5 mM NaCl, read-out: IC50, basal ATP hydrolysis
T1 sequence (P52732 1-370): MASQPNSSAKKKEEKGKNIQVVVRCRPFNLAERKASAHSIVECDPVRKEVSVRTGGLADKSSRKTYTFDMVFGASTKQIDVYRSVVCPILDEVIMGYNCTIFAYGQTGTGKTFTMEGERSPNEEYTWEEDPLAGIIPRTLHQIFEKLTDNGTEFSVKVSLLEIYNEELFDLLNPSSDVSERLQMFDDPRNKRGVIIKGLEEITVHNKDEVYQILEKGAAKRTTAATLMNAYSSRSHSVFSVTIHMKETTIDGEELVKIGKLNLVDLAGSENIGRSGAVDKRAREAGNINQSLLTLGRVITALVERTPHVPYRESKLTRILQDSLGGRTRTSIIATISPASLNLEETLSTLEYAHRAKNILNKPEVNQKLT
Description: (§1) Basal ATPase activities were measured with a coupled enzymatic assay as previously described (29) with 5 μM motor protein and 1 mM MgATP in a SpectraMax 2E spectrophotometer for high-throughput kinetic measurements as previously described (30). […] Reactions used for calculation of the IC50 values contained between 5 and 22.5 mM NaCl. Data were reproducible with protein samples purified from differing batches of cultured cells from two different laboratories.

[2] = test system: Eg5 E116, D130 and A133 mutants; settings: all E116, D130 and A133 mutants, to varying degrees
Description: as §1

Row | IC50 [1] | Structure (SMILES) | sensitivity of mutants to inhibitor [2]
1 | 8 µM | CCOC(=O)C1=C(C)NC(=S)NC1c1cccc(O)c1 (centres unmarked) [monastrol] | 
2 |  | N[C@@H](CSC(c1ccccc1)(c1ccccc1)c1ccccc1)C(=O)O [STC, S-trityl-L-cysteine] | reduced sensitivity
